According to ChEMBL document CHEMBL1201862, “PubChem BioAssay data set” (2004):
Activity calls are given as the source filed them.

Legend:
[1] = target: Latent membrane protein 1 (Human herpesvirus 4 (strain B95-8), UniProt P03230); assay: TES1-eGFP NF-kB reporter inhibition versus Tet-On dsRED, dose response, selectivity assay for LMP1 NF-kB inhibitor project, imaging, HEK293T, dual-color eGFP/dsRED, cherry-picks (AID 588398); type: functional, cell-based
Phospholipase D2 = Phospholipase D2 (Homo sapiens, UniProt O14939); assay: PLD2 inhibitor potency in cells, dose response (AID 602147); type: functional;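 note: cellular assay in HEK293 cells overexpressing GFP-tagged PLD2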
Phospholipase D1 = Phospholipase D1 (Homo sapiens, UniProt Q13393); assay: PLD1 inhibitor potency in cells, dose response (AID 602151); type: functional;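 note: cellular PLD1 assay in Calu-1 cells stimulated with PMA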
[2] = Luminescence Cell-Based Dose Response HTS to Identify Inhibitors of 5'UTR Stem-Loop Driven Prion Protein mRNA Translation in H4 Neuroglioblastoma Cells. [Related pubchem assays: 1827 (Project Summary), 1813 (Primary HTS)]; type: functional
[3] = inhibitors of firefly luciferase expression or activity, dose response, H4 neuroglioma cells, luminescence (AID 1990); type: functional, cell-based
[4] = microbe, parasite or virus in culture; type: functional; details: Mycobacterium tuberculosis
[5] = inhibitors of SNCA 5'UTR-driven reporter translation, confirmation, H4 neuroglioma cells, luminescence (AID 1988); type: functional, cell-based
CAAX prenyl protease 2 = CAAX prenyl protease 2 (Homo sapiens, UniProt Q9Y256); assay: human Rce1 protease inhibitors, dose response, biochemical, yeast membranes, quenched-peptide fluorescence, cherry-pick (AID 588849)
Escherichia coli = assay: microbe, parasite or virus in culture
fMet-Leu-Phe receptor = target: T1, fMet-Leu-Phe receptor (Homo sapiens, UniProt P21462); assay: FPR ligands, dose response (AID 519); type: functional
T1 sequence (P21462 whole entry): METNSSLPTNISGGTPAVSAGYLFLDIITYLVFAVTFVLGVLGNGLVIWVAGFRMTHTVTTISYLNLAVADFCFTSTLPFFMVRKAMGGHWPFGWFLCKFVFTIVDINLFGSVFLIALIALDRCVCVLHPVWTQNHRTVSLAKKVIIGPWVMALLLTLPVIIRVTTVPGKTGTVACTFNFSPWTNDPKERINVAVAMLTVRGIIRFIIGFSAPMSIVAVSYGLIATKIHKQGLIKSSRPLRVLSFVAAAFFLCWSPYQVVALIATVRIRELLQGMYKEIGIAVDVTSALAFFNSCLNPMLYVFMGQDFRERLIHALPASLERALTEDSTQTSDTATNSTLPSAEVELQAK

Cytochrome P450 1A2 = target: T2, Cytochrome P450 1A2 (Homo sapiens, UniProt P05177);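 note: PubChem cytochrome P450 panel assay, CYP1A2 panel member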
T2 sequence (P05177 whole entry): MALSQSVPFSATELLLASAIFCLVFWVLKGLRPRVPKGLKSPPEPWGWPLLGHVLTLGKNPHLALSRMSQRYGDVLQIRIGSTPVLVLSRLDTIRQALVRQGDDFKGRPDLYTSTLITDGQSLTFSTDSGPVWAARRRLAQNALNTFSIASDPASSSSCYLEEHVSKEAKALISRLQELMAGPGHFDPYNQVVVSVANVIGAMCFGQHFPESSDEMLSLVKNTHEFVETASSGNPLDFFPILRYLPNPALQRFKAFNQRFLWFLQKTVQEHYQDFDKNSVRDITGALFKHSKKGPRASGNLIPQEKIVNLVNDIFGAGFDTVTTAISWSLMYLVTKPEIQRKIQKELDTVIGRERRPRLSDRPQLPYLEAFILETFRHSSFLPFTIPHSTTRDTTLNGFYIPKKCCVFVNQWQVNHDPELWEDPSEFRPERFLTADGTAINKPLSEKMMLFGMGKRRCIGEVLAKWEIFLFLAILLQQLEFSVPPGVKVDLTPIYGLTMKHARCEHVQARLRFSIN

Protein skinhead-1 = target: T3, Protein skinhead-1 (Caenorhabditis elegans, UniProt P34707); type: functional
T3 sequence (P34707 whole entry): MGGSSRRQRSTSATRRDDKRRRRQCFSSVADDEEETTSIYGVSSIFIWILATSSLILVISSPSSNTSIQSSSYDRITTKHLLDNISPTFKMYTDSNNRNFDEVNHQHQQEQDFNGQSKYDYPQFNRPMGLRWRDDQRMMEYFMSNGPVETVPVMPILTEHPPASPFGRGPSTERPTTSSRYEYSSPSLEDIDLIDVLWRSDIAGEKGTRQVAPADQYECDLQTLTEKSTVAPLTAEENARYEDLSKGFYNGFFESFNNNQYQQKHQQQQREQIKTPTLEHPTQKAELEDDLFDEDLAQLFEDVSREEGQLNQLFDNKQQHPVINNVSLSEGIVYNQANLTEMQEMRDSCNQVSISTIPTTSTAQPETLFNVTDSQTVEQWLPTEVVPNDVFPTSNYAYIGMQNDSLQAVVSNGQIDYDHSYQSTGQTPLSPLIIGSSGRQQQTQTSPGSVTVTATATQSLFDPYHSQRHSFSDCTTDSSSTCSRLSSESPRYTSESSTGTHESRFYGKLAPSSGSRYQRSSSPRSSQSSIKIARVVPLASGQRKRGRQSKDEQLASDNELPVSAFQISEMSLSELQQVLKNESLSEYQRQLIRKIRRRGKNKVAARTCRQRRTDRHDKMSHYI

Cytochrome P450 2D6 = Cytochrome P450 2D6 (Homo sapiens, UniProt P10635);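 note: CYP2D6 member of a cytochrome P450 panel assay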
[6] = Luminescence Cell-Based Dose Retest to Confirm Inhibitors of Cancer Stem Cells. [Related pubchem assays (depositor defined):AID2717, AID2721]; type: functional; details: Homo sapiens
[7] = cytotoxicity in HMLE control line with eGFP shRNA, dose response, counter-screen for HMLE_sh_ECad selective toxicity project, cell-based, HMLE_sh_eGFP, luminescence (AID 463074); type: functional, Homo sapiens;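 note: HMLE human mammary epithelial cells expressing control shRNA against eGFP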
Nonstructural protein 1 = Nonstructural protein 1 (Influenza A virus, UniProt Q194T2); type: functional, Influenza A virus (A/California/07/2009(H1N1))
BJ [8] = assay: cells; type: functional, cell-based; details: Homo sapiens
BJ [9] = assay: cytotoxicity toward BJ-TERT fibroblasts, dose response, cell-based, RAS-independent, luminescence (AID 1933); type: functional; details: Homo sapiens
[10] = target: T4, Heat shock factor protein 1 (Mus musculus, UniProt P38532); assay: inhibition of MG132-induced HSE-luciferase signal, confirmation, cell-based, NIH3T3, luminescence, dose retest (AID 2382); type: functional;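 note: NIH3T3 fibroblasts with HSF1-driven luciferase reporter stressed by proteasome inhibitor MG132; luminescence from HSF1-driven luciferase expression after 8 hours of MG132 stress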
T4 sequence (P38532 whole entry): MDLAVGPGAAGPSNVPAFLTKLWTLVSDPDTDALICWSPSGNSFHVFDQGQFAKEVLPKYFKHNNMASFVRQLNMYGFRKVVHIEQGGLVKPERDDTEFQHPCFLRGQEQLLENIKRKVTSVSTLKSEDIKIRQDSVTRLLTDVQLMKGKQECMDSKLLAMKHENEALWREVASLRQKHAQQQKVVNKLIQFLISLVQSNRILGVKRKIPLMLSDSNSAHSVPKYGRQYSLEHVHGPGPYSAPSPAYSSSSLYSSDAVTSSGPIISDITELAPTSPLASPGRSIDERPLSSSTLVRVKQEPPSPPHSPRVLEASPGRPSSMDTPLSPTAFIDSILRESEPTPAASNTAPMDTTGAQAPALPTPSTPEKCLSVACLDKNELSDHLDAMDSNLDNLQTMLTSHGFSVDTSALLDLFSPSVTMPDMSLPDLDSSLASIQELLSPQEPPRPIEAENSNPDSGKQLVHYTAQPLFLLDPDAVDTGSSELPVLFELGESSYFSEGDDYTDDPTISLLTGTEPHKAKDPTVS

[11] = cytotoxicity toward DRD oncogenic fibroblasts, dose response, cell-based, non-viral oncogenic, luminescence (AID 1934); type: functional; details: Homo sapiens
BJ [12] = assay: cytotoxicity toward BJ-TERT-LT-ST fibroblasts, dose response, cell-based, RAS-independent, luminescence (AID 1935); type: functional; details: Homo sapiens;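 note: BJ fibroblasts immortalized with TERT plus LT and ST oncogenes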
BJ [13] = assay: cytotoxicity toward Ras-transformed BJeLR fibroblasts, dose response, cell-based, alamar blue fluorescence, cherrypicked samples (AID 2631); type: functional; details: Homo sapiens;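 note: confirmatory dose-response assay in RAS-dependent BJ fibroblasts engineered with TERT, LT and ST, with cytotoxicity read by fluorescence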
[14] = target: T4, Heat shock factor protein 1; assay: HSF1 potentiators in luciferase reporter cells, confirmation, cell-based, NIH3T3, luminescence, dose retest (AID 435004); type: functional;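 note: stress induced by proteasome inhibitor MG132 added 30 min after compound; luciferase reporter driven by HSF1 response element in NIH3T3 cells; actives raise luminescence as potentiators of the MG132 stress response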

Phospholipase D2, sequence (O14939 whole entry): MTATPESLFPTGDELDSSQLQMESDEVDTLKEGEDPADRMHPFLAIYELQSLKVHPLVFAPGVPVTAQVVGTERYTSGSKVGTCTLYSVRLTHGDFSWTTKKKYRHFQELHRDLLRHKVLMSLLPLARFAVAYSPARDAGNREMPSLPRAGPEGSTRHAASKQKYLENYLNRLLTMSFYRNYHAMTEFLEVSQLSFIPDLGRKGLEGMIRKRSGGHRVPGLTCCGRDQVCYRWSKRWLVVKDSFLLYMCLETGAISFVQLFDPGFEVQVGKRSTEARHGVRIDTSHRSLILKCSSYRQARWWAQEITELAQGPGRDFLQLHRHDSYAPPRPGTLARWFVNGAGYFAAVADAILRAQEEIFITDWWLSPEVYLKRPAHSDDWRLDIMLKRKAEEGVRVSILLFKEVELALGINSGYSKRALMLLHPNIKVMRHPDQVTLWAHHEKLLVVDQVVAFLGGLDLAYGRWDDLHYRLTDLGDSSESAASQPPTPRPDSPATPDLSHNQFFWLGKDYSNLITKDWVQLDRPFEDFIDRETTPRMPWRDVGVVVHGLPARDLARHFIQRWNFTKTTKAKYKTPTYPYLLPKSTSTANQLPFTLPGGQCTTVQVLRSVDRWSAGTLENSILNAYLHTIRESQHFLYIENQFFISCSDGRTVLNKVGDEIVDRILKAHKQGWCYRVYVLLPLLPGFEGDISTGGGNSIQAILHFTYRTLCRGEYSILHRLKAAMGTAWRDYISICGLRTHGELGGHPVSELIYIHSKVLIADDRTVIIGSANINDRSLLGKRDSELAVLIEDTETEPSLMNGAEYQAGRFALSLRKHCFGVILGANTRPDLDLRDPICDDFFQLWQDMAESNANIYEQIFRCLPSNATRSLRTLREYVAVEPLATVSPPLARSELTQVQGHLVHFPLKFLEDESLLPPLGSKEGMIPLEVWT
Phospholipase D1, sequence (Q13393 whole entry): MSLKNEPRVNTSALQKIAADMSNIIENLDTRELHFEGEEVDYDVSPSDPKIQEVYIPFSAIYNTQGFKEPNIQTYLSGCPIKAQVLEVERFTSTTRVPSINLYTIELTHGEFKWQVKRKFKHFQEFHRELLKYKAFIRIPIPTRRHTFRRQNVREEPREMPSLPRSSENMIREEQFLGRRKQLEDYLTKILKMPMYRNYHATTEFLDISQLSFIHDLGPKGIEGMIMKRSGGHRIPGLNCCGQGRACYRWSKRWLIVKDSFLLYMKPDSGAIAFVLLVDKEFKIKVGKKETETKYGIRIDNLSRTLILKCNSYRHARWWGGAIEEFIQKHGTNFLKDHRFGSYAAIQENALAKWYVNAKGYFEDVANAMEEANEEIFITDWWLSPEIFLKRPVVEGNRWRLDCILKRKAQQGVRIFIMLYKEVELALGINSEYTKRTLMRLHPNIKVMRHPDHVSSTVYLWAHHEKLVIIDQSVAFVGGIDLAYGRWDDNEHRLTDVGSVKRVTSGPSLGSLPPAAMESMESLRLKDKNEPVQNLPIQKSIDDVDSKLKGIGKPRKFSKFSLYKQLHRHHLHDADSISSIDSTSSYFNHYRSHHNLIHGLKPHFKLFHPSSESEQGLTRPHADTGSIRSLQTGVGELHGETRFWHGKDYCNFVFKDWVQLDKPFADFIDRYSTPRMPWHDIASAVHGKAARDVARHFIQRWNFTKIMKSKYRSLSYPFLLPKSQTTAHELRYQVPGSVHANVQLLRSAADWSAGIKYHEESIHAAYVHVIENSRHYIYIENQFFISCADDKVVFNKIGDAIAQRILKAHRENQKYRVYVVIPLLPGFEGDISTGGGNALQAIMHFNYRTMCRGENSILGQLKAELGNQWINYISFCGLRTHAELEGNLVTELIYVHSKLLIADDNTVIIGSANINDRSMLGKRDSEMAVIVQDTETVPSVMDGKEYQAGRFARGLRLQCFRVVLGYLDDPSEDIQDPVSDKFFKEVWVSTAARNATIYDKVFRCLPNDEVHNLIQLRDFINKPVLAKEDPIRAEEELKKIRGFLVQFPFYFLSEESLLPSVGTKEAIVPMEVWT
Nonstructural protein 1, sequence (Q194T2 whole entry): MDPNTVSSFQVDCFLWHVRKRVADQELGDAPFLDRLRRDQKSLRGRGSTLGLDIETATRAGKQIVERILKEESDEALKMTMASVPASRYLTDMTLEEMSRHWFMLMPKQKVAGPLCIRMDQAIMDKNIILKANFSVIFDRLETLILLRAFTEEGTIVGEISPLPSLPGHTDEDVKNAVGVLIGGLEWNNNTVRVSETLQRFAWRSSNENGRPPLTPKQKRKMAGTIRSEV
CAAX prenyl protease 2, sequence (Q9Y256 whole entry): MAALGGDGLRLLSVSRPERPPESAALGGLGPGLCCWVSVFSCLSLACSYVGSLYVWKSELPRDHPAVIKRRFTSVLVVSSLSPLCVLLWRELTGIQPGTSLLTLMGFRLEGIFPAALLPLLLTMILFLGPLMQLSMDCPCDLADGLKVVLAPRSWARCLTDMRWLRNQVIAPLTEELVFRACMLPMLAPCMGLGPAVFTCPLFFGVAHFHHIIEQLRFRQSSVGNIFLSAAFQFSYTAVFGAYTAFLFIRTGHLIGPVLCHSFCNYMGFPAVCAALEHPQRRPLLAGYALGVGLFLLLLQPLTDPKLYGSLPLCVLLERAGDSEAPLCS
Cytochrome P450 2D6, sequence (P10635 whole entry): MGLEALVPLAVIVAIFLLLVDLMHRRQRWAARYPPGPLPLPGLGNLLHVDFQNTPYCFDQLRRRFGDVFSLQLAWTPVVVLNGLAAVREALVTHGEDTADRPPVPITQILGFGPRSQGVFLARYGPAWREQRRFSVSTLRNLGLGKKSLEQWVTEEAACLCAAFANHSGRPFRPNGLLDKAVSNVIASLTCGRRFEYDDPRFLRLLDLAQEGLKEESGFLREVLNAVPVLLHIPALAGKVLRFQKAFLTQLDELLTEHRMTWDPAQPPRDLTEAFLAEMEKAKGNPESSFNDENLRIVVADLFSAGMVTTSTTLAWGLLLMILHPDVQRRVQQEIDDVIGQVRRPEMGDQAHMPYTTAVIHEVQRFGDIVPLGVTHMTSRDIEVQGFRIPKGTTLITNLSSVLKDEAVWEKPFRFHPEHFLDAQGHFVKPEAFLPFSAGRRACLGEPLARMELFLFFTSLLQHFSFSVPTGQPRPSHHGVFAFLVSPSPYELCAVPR
Latent membrane protein 1, sequence (P03230 whole entry): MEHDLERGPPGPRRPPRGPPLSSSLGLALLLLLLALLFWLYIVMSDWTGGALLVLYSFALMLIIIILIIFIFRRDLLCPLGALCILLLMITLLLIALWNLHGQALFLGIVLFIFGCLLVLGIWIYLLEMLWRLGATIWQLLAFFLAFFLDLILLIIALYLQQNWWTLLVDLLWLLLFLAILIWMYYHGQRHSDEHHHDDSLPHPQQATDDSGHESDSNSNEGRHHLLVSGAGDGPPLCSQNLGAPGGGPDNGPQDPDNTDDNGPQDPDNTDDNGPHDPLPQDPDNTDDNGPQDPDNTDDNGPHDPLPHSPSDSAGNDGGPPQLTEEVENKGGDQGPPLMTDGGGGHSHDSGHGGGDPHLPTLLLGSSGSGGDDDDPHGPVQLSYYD

**Q.** Which AC50 [1] does the source give for `O=[N+]([O-])c1ccc(CN2CC=C(c3ccccc3)CC2)cc1` here?
**A.** Its AC50 is 178 µM (active).

**Q.** With `O=C(NCCN1CCC(n2c(=O)[nH]c3ccccc32)CC1)Nc1cccc(F)c1` as the compound, how does the IC50 (Phospholipase D2) read?
**A.** Its IC50 is 2.3 µM (active).

**Q.** And the IC50 (Phospholipase D1)?
**A.** The IC50 was 0.078 µM (active).

**Q.** What does the source list for `CN(C)CCCN(C(=O)c1cc(-c2cccs2)nc2ccccc12)c1nc2ccc(F)cc2s1`?
**A.** EC50 [2]: 12.2 µM (active); EC50 [3]: > 60 µM (not active); CC50 [4]: 25.1 µM (active); EC50 [5]: 8.08 µM (active); AC50 (CAAX prenyl protease 2): 29 µM (active)

**Q.** For `Cc1c(N=C2NC3(CCCCC3)Cc3ccccc32)c(=O)n(-c2ccccc2)n1C`, which AC50 (Escherichia coli) is on record?
**A.** Its AC50 is > 150 µM (inactive).

**Q.** With `OCCN1CCN(C(S)=Nc2ccc(Oc3ccccc3)cc2)CC1` as the compound, how does the AC50 (Escherichia coli) read?
**A.** Its AC50 is 82.3 µM (active).

**Q.** What does the source list for `Cc1ccc(C)c(-n2c(CNC(=O)c3ccco3)nnc2SCC(=O)N2CCc3ccccc32)c1`?
**A.** Ki (fMet-Leu-Phe receptor): > 66.7 µM (inactive); AC50 (Cytochrome P450 1A2): 2.51 µM (inconclusive); IC50 (Protein skinhead-1): > 100 µM (inactive); AC50 (Cytochrome P450 2D6): inconclusive

**Q.** With `COc1ccc(/C=C2\CCC/C(=C\C=N\N(C)C)C2=O)cc1` as the compound, how does the AC50 [6] read?
**A.** Its AC50 is 25 µM (active).

**Q.** What about the AC50 [7] of the same compound?
**A.** Its AC50 is 20.8 µM (active).

**Q.** What about the CC50 [4] of the same compound?
**A.** Its CC50 is 9.83 µM (active).

**Q.** And the IC50 (Nonstructural protein 1)?
**A.** Its IC50 is 50.6 µM (active).

**Q.** For `CC(C)c1onc(C(=O)N2CCN(C(c3ccccc3)c3ccccc3)CC2)c1[N+](=O)[O-]`, which EC50 (BJ [8]) is on record?
**A.** Its EC50 is 14.4 µM (inconclusive).

**Q.** What about the EC50 (BJ [9]) of the same compound?
**A.** The EC50 was 0.621 µM (inconclusive).

**Q.** What about the EC50 [10] of the same compound?
**A.** The EC50 was 3.16 µM (active).

**Q.** What about the EC50 [11] of the same compound?
**A.** The EC50 was 2.69 µM (active).

**Q.** What about the EC50 (BJ [12]) of the same compound?
**A.** Its EC50 is > 150 µM (not active).

**Q.** And the EC50 (BJ [13])?
**A.** The EC50 was 5.72 µM (active).

**Q.** What does the source list for `O=C1C2CC=CCC2C(=O)N1c1ccc(NCCc2ccccc2)c([N+](=O)[O-])c1` (centres undefined)?
**A.** EC50 [14]: 13.4 µM (active); AC50 [6]: 0.209 µM (active); AC50 [7]: 36.3 µM (active)

**Q.** Which IC50 (Phospholipase D2) does the source give for `O=C(NCCN1CCC(n2c(=O)[nH]c3ccccc32)CC1)c1cc([N+](=O)[O-])cc([N+](=O)[O-])c1` here?
**A.** The IC50 was 1.32 µM (active).

**Q.** And the IC50 (Phospholipase D1)?
**A.** Its IC50 is 0.27 µM (active).
